Data reported in the supplement of paper PMC13207355.
± gives the standard deviation of the averaged measurements.

Legend:
Details in all cases: exposure time: 72 h
[1] = tested on: E57 (patient-derived glioblastoma stem cells of mesenchymal subtype); assay: phenotypic distance (Euclidean, principal components) from DMSO controls (arbitrary units); higher = stronger morphological change
[2] = tested on: E21 (patient-derived glioblastoma stem cells of mesenchymal subtype); assay: as above
[3] = tested on: E34 (patient-derived glioblastoma stem cells of proneural subtype); assay: as above
[4] = tested on: E13 (patient-derived glioblastoma stem cells of classical subtype); assay: as above
[5] = tested on: FT3469 (normal neural stem cell line); assay: as above
[6] = tested on: E28 (patient-derived glioblastoma stem cells of classical subtype); assay: as above
[7] = tested on: E57; assay: surviving fraction (nuclei count normalised to DMSO); higher = more cells surviving (less toxic)
[8] = tested on: E21; assay: as above
[9] = tested on: E34; assay: as above
[10] = tested on: E13; assay: as above
[11] = tested on: FT3469; assay: as above
[12] = tested on: E28; assay: as above
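For phenotypic distance (Euclidean, principal components) from DMSO controls in this document: cell Painting imaging in 384-well plates, CellProfiler features reduced to at least 20 principal components, Euclidean distance versus same-plate DMSO vehicle wells (0.1% v/v), median over six images per well.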
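For surviving fraction (nuclei count normalised to DMSO) in this document: nuclei counted by high-content imaging of Hoechst-stained cells in laminin-coated 384-well plates, relative to 0.1% DMSO vehicle wells, with staurosporine as cell-death control.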

C[C@H](NC(=O)[C@@H](O)c1cc(F)cc(F)c1)C(=O)N[C@@H]1C(=O)N(C)c2ccccc2-c2ccccc21
Details	phenotypic distance	surviving fraction
[1], 4.1 nM	1.25 ± 0.31	–
[1], 12.3 nM	1.21 ± 0.19	–
[1], 37 nM	1.87 ± 1.2	–
[1], 111.1 nM	1.2 ± 0.015	–
[1], 333.3 nM	1.284 ± 0.0023	–
[1], 1000 nM	1.34 ± 0.35	–
[1], 3000 nM	1.43 ± 0.39	–
[2], 4.1 nM	0.769 ± 0.025	–
[2], 12.3 nM	2.05 ± 0.56	–
[2], 37 nM	1.5 ± 0.98	–
[2], 111.1 nM	0.896 ± 0.046	–
[2], 333.3 nM	3.99 ± 4.1	–
[2], 1000 nM	1.02 ± 0.12	–
[2], 3000 nM	1.01 ± 0.22	–
[3], 4.1 nM	1.26 ± 0.65	–
[3], 12.3 nM	0.926 ± 0.098	–
[3], 37 nM	1.15 ± 0.07	–
[3], 111.1 nM	1.04 ± 0.25	–
[3], 333.3 nM	1.01 ± 0.31	–
[3], 1000 nM	1.24 ± 0.14	–
[3], 3000 nM	1.49 ± 0.21	–
[4], 4.1 nM	0.77 ± 0.23	–
[4], 12.3 nM	0.711 ± 0.02	–
[4], 37 nM	0.622 ± 0.052	–
[4], 111.1 nM	0.7795 ± 0.0029	–
[4], 333.3 nM	0.785 ± 0.014	–
[4], 1000 nM	0.723 ± 0.061	–
[4], 3000 nM	0.862 ± 0.29	–
[5], 4.1 nM	1.01 ± 0.32	–
[5], 12.3 nM	0.677 ± 0.012	–
[5], 37 nM	0.997 ± 0.026	–
[5], 111.1 nM	0.721 ± 0.25	–
[5], 333.3 nM	1.08 ± 0.19	–
[5], 1000 nM	0.977 ± 0.058	–
[5], 3000 nM	0.991 ± 0.17	–
[6], 4.1 nM	0.845 ± 0.08	–
[6], 12.3 nM	0.88 ± 0.22	–
[6], 37 nM	0.919 ± 0.12	–
[6], 111.1 nM	0.756 ± 0.19	–
[6], 333.3 nM	0.96 ± 0.036	–
[6], 1000 nM	1.03 ± 0.061	–
[6], 3000 nM	1.13 ± 0.34	–
[7], 4.1 nM	–	0.906 ± 0.036
[7], 12.3 nM	–	0.947 ± 0.018
[7], 37 nM	–	0.939 ± 0.027
[7], 111.1 nM	–	0.922 ± 0.042
[7], 333.3 nM	–	0.9779 ± 0.0074
[7], 1000 nM	–	0.943 ± 0.089
[7], 3000 nM	–	0.931 ± 0.12
[8], 4.1 nM	–	0.89 ± 0.018
[8], 12.3 nM	–	0.9941 ± 0.0084
[8], 37 nM	–	0.938 ± 0.015
[8], 111.1 nM	–	0.902 ± 0.039
[8], 333.3 nM	–	0.872 ± 0.072
[8], 1000 nM	–	0.883 ± 0.036
[8], 3000 nM	–	0.898 ± 0.035
[9], 4.1 nM	–	0.841 ± 0.3
[9], 12.3 nM	–	0.811 ± 0.045
[9], 37 nM	–	0.801 ± 0.099
[9], 111.1 nM	–	0.907 ± 0.25
[9], 333.3 nM	–	0.862 ± 0.14
[9], 1000 nM	–	0.775 ± 0.11
[9], 3000 nM	–	0.875 ± 0.1
[10], 4.1 nM	–	1.02 ± 0.15
[10], 12.3 nM	–	1.075 ± 0.0081
[10], 37 nM	–	1.02 ± 0.065
[10], 111.1 nM	–	1.03 ± 0.024
[10], 333.3 nM	–	1.08 ± 0.081
[10], 1000 nM	–	1.07 ± 0.046
[10], 3000 nM	–	0.995 ± 0.058
[11], 4.1 nM	–	0.89 ± 0.062
[11], 12.3 nM	–	0.882 ± 0.071
[11], 37 nM	–	0.89 ± 0.049
[11], 111.1 nM	–	0.906 ± 0.032
[11], 333.3 nM	–	0.896 ± 0.084
[11], 1000 nM	–	0.875 ± 0.048
[11], 3000 nM	–	0.828 ± 0.041
[12], 4.1 nM	–	0.852 ± 0.073
[12], 12.3 nM	–	0.866 ± 0.055
[12], 37 nM	–	0.942 ± 0.074
[12], 111.1 nM	–	0.918 ± 0.13
[12], 333.3 nM	–	0.925 ± 0.024
[12], 1000 nM	–	0.835 ± 0.086
[12], 3000 nM	–	0.891 ± 0.0093
